Data as given in the NIST ThermoML archive (doi:10.1021/je200710t).
Numbers after ± are expanded uncertainties.

Experiments:
[1] = for mass density / viscosity: 101.33 kPa, Liquid; for Glass transition temperature: DTA
[2] = refractive index (Na D-line) (dimensionless); conditions: 101.33 kPa, Liquid, Standard Abbe refractometry

N#CCCn1cc[n+](Cc2ccccc2)c1.[Cl-] [1-(2-cyanoethyl)-3-(phenylmethyl)-1H-imidazolium chloride]
[1]
Conditions	mass density [kg/m3]	viscosity [mPa·s]
298.15 K	1202.67 ± 2.5	–
303.15 K	1200.28 ± 2.5	–
308.15 K	1197.33 ± 2.5	–
313.15 K	1194.37 ± 2.5	–
318.15 K	1191.42 ± 2.4	–
323.15 K	1188.5 ± 2.4	95152 ± 19000
328.15 K	1185.59 ± 2.4	42665 ± 7800
333.15 K	1182.69 ± 2.4	20463 ± 3300
338.15 K	1179.8 ± 2.4	10434 ± 1500
343.15 K	1176.88 ± 2.3	5635 ± 720
348.15 K	1174.01 ± 2.3	3190 ± 360
353.15 K	1171.16 ± 2.3	1958 ± 190

Conditions	Glass transition temperature [°C]
[1]	16.21 ± 4

C=CC[n+]1ccn(CCC#N)c1.[Cl-] [3-allyl-1-(2-cyanoethyl)-1H-imidazolium chloride]
Conditions	mass density, [1] [kg/m3]	refractive index, [2]	viscosity, [1] [mPa·s]
293.15 K	1173.79 ± 2.2	1.54731 ± 0.00043	–
298.15 K	1170.79 ± 2.2	1.54603 ± 0.00043	17544 ± 2800
303.15 K	1167.79 ± 2.2	1.54478 ± 0.00043	10294 ± 1500
308.15 K	1164.8 ± 2.2	1.54339 ± 0.00043	5761 ± 740
313.15 K	1161.84 ± 2.1	1.54208 ± 0.00043	3316 ± 380
318.15 K	1158.88 ± 2.1	1.54072 ± 0.00043	2046 ± 200
323.15 K	1155.93 ± 2.1	1.53945 ± 0.00043	1314 ± 120
328.15 K	1152.91 ± 2.1	1.53813 ± 0.00043	873 ± 68
333.15 K	1150.01 ± 2.1	1.53682 ± 0.00043	599 ± 40
338.15 K	1147.11 ± 2	–	423 ± 25
343.15 K	1144.22 ± 2	–	306 ± 15
348.15 K	1141.32 ± 2	–	226 ± 9
353.15 K	1138.42 ± 2	–	171 ± 6

Conditions	Glass transition temperature [°C]
[1]	-1.48 ± 4

N#CCCn1cc[n+](CCO)c1.[Cl-] [1-(2-cyanoethyl)-3-(2-hydroxyethyl)-1H-imidazolium chloride]
Conditions	mass density, [1] [kg/m3]	refractive index, [2]	viscosity, [1] [mPa·s]
293.15 K	1257.9 ± 3.6	1.54996 ± 0.00052	–
298.15 K	1255.05 ± 3.5	1.54847 ± 0.00052	–
303.15 K	1252.2 ± 3.5	1.54699 ± 0.00052	62813 ± 12000
308.15 K	1249.38 ± 3.5	1.54554 ± 0.00052	33772 ± 5900
313.15 K	1246.58 ± 3.5	1.54412 ± 0.00052	19046 ± 3100
318.15 K	1243.81 ± 3.4	1.54277 ± 0.00052	11119 ± 1600
323.15 K	1241.05 ± 3.4	1.54133 ± 0.00052	6721 ± 890
328.15 K	1238.32 ± 3.4	1.53985 ± 0.00052	4213 ± 500
333.15 K	1235.59 ± 3.4	1.53847 ± 0.00052	2708 ± 290
338.15 K	1232.86 ± 3.3	–	1817 ± 180
343.15 K	1230.13 ± 3.3	–	1245 ± 110
348.15 K	1227.41 ± 3.3	–	873 ± 68
353.15 K	1224.57 ± 3.3	–	632 ± 44

Conditions	Glass transition temperature [°C]
[1]	14.50 ± 4

CCCC[n+]1ccn(CCC#N)c1.[Cl-] [3-butyl-1-(2-cyanoethyl)-1H-imidazol-3-ium chloride]
Conditions	mass density, [1] [kg/m3]	refractive index, [2]	viscosity, [1] [mPa·s]
293.15 K	1132.55 ± 3.3	1.52575 ± 0.00062	4707 ± 580
298.15 K	1129.35 ± 3.2	1.5243 ± 0.00062	2637 ± 280
303.15 K	1126.15 ± 3.2	1.52287 ± 0.00062	1612 ± 150
308.15 K	1122.93 ± 3.2	1.52139 ± 0.00062	1020 ± 84
313.15 K	1119.66 ± 3.1	1.51992 ± 0.00062	668 ± 48
318.15 K	1116.49 ± 3.1	1.51846 ± 0.00062	451 ± 27
323.15 K	1113.34 ± 3.1	1.51707 ± 0.00062	314 ± 16
328.15 K	1110.18 ± 3	1.5156 ± 0.00062	224 ± 10
333.15 K	1107.03 ± 3	1.51418 ± 0.00062	164 ± 6
338.15 K	1103.87 ± 3	–	123 ± 3
343.15 K	1100.72 ± 2.9	–	94 ± 2
348.15 K	1097.57 ± 2.9	–	73 ± 1
353.15 K	1094.44 ± 2.9	–	58 ± 1

Conditions	Glass transition temperature [°C]
[1]	-5.23 ± 4
